Common to all, as to format: cell-based
In assay [1] the test system is Staphylococcus aureus (g+) LMG 8064. Put plainly: Poison Plate Assay, bacteria on Tryptose Agar. Conditions: ppm total active ingredient, growth evaluated after five days, 27° C. How it is done:
(§1) Experiment 1: Poison Plate Assay
(§2) • pyrimethanil (I-a) • cyprodinil (I-b) • mepanipyrim (I-c) Name of Component (II): • 1-hydroxy-2-pyridinone (II-a) • ciclopirox (II-b) • ciclopirox olamine (II-c) • piroctone (II-d) • piroctone olamine (II-e) • rilopirox (II-f) • pyrion disulfide (II-g) • sodium pyrithione (II-h) • zinc pyrithione (II-i) Test Models: • Fungi: to each well of a 24-well microtiter plate, 1000 μl of Glucose Agar (GA: 10 g glucose, 1.5 g K2HPO4, 2 g KH2PO4, 1 g (NH4)2SO4, 0.5 g MgSO4 and 12.5 g agar in 1 liter deionised water) containing the appropriate combination of the test compounds in one of the concentrations of a dose series is added. The nutrient medium is inoculated with the test fungi by adding a spore/mycelium suspension (10 μl) or a small piece of agar from the margin of an actively growing colony and incubated under dark at 27° C. with 70% relative humidity. […] The nutrient medium is inoculated by adding 10 μl of an actively growing liquid culture of the test bacteria in tryptose broth (without agar), and incubated under dark at 27° C. with 70% relative humidity. The growth is evaluated after five days. Concentrations: • Synergy experiment with hydroxypyridone: • MIC values for single compounds were collected from previous screening experiments. These MIC values were used as a guide in determining of the most suitable test dose ranges. For the combination experiments, two overlapping dose series were used, in order to maximise the chance of the MIC values falling within the test concentration range for all combinations: • Series 1: 50.00-37.50-28.13-21.09-15.82-11.87-8.90-6.67-5.01-3.75-2.82-2.11 ppm • Series 2: 25.00-18.75-14.06-10.55-7.91-5.93-4.45-3.34-2.50-1.88-1.41-1.06 ppm • Synergy experiments with bispyrithione and sodium pyrithione: 10.00-7.50-5.63-4.22-3.16-2.37-1.78-1.33-1.00-0.75-0.56-0.42 ppm
(§3) (2000) “Measuring synergy” cosmetics & Toiletries 115(11): 59-62; and Lada, A., A. N. Petrocci, H. A. Green, and J. J. Merianos (1977) “Antimicrobial composition” U.S. Pat. No. 4,061,750, 3 pp.): […]

Assay [2] deals with Ulocladium atrum IMI214699a. Kind of assay: Poison Plate Assay, fungi on Glucose Agar. The note with it: % (I-a) + % (II-h), ppm total active ingredient, growth evaluated after two weeks, 27° C. How it is done:
as §1, §2, §3

The test system of assay [3] is Chaetomium globosum ATCC6205. Put plainly: Poison Plate Assay, fungi on Glucose Agar. The note with it: % (I-a) + % (II-g), ppm total active ingredient, growth evaluated after two weeks, 27° C. How it is done:
as §1, §2, §3

`Cc1cc(C)nc(Nc2ccccc2)n1` [(I-a) + (II-h) 100 + 0, pyrimethanil]: the “MIC-values (minimum inhibitory concentration) in ppm” value came to 4.22 ppm in assay [1] (% (I-a) + % (II-h)) and 3.16 ppm in assay [2].

Regarding `[O-][n+]1ccccc1SSc1cccc[n+]1[O-]` [(I-a) + (II-g) 0 + 100, pyrion disulfide], the MIC stood at 213 µg/mL in assay [1] (LMG8064, 120 h, % (I-a) + % (II-g), read-out: MIC-values (minimum inhibitory concentration) in ppm) and 40 µg/mL in assay [3] (ATCC6205, 336 h, read-out: MIC-values (minimum inhibitory concentration) in ppm).

Regarding `Cc1cc(C)nc(Nc2ccccc2)n1` [(I-a) + (II-g) 100 + 0, pyrimethanil], the “MIC-values (minimum inhibitory concentration) in ppm” value in assay [1] (% (I-a) + % (II-g)) is given as 3.16 ppm; in assay [3] it was 1.78 ppm.
